Test results: BigSolDB 2.1

Nc1nc(N)nc(NC2CC2)n1
Settings | solubility (mole fraction)
in acetic acid, 293.15 K | 0.0128
in acetic acid, 298.15 K | 0.0155
in acetic acid, 303.15 K | 0.0187
in acetic acid, 308.15 K | 0.0227
in acetic acid, 313.15 K | 0.0275
in acetic acid, 318.15 K | 0.033
in acetic acid, 323.15 K | 0.0395
in acetic acid, 328.15 K | 0.0471
in acetic acid, 333.15 K | 0.0562
in acetone, 283.15 K | 0.000486
in acetone, 288.15 K | 0.000535
in acetone, 293.15 K | 0.000617
in acetone, 298.15 K | 0.00071
in acetone, 303.15 K | 0.000805
in acetone, 308.15 K | 0.00091
in acetone, 313.15 K | 0.00103
in acetone, 318.15 K | 0.00114
in acetone, 323.15 K | 0.00127
in acrylic acid, 293.15 K | 0.0341
in acrylic acid, 298.15 K | 0.0413
in acrylic acid, 303.15 K | 0.0492
in acrylic acid, 308.15 K | 0.0581
in acrylic acid, 313.15 K | 0.0683
in acrylic acid, 318.15 K | 0.0785
in acrylic acid, 323.15 K | 0.09
in acrylic acid, 328.15 K | 0.101
in acrylic acid, 333.15 K | 0.112
in ethanol, 283.15 K | 0.000916
in ethanol, 288.15 K | 0.00107
in ethanol, 293.15 K | 0.00127
in ethanol, 298.15 K | 0.00149
in ethanol, 303.15 K | 0.00172
in ethanol, 308.15 K | 0.00205
in ethanol, 313.15 K | 0.00253
in ethanol, 318.15 K | 0.00299
in ethanol, 323.15 K | 0.00355
in isobutanol, 283.15 K | 0.000396
in isobutanol, 288.15 K | 0.000483
in isobutanol, 293.15 K | 0.000594
in isobutanol, 298.15 K | 0.000702
in isobutanol, 303.15 K | 0.00084
in isobutanol, 308.15 K | 0.000983
in isobutanol, 313.15 K | 0.00115
in isobutanol, 318.15 K | 0.00131
in isobutanol, 323.15 K | 0.0015
in isopentanol, 283.15 K | 0.000469
in isopentanol, 288.15 K | 0.000592
in isopentanol, 293.15 K | 0.000725
in isopentanol, 298.15 K | 0.00087
in isopentanol, 303.15 K | 0.00104
in isopentanol, 308.15 K | 0.00127
in isopentanol, 313.15 K | 0.00148
in isopentanol, 318.15 K | 0.0018
in isopentanol, 323.15 K | 0.00214
in isopropanol, 283.15 K | 0.000465
in isopropanol, 288.15 K | 0.000529
in isopropanol, 293.15 K | 0.000638
in isopropanol, 298.15 K | 0.000751
in isopropanol, 303.15 K | 0.000915
in isopropanol, 308.15 K | 0.00109
in isopropanol, 313.15 K | 0.00125
in isopropanol, 318.15 K | 0.00146
in isopropanol, 323.15 K | 0.00172
in methanol, 283.15 K | 0.00199
in methanol, 288.15 K | 0.00224
in methanol, 293.15 K | 0.00251
in methanol, 298.15 K | 0.00279
in methanol, 303.15 K | 0.0031
in methanol, 308.15 K | 0.00344
in methanol, 313.15 K | 0.00378
in methanol, 318.15 K | 0.00416
in methanol, 323.15 K | 0.00456
in n-butanol, 283.15 K | 0.00073
in n-butanol, 288.15 K | 0.000871
in n-butanol, 293.15 K | 0.00104
in n-butanol, 298.15 K | 0.00126
in n-butanol, 303.15 K | 0.0015
in n-butanol, 308.15 K | 0.00179
in n-butanol, 313.15 K | 0.00217
in n-butanol, 318.15 K | 0.00262
in n-butanol, 323.15 K | 0.0031
in n-heptanol, 283.15 K | 0.000235
in n-heptanol, 288.15 K | 0.000322
in n-heptanol, 293.15 K | 0.000422
in n-heptanol, 298.15 K | 0.000556
in n-heptanol, 303.15 K | 0.000737
in n-heptanol, 308.15 K | 0.000957
in n-heptanol, 313.15 K | 0.00124
in n-heptanol, 318.15 K | 0.00162
in n-heptanol, 323.15 K | 0.00213
in n-hexanol, 283.15 K | 0.000534
in n-hexanol, 288.15 K | 0.000661
in n-hexanol, 293.15 K | 0.000816
in n-hexanol, 298.15 K | 0.001
in n-hexanol, 303.15 K | 0.00123
in n-hexanol, 308.15 K | 0.00151
in n-hexanol, 313.15 K | 0.00185
in n-hexanol, 318.15 K | 0.00227
in n-hexanol, 323.15 K | 0.00279
in n-pentanol, 283.15 K | 0.000671
in n-pentanol, 288.15 K | 0.000818
in n-pentanol, 293.15 K | 0.000981
in n-pentanol, 298.15 K | 0.00119
in n-pentanol, 303.15 K | 0.00142
in n-pentanol, 308.15 K | 0.00171
in n-pentanol, 313.15 K | 0.00204
in n-pentanol, 318.15 K | 0.00245
in n-pentanol, 323.15 K | 0.00291
in n-propanol, 283.15 K | 0.000809
in n-propanol, 288.15 K | 0.000927
in n-propanol, 293.15 K | 0.00113
in n-propanol, 298.15 K | 0.00136
in n-propanol, 303.15 K | 0.00163
in n-propanol, 308.15 K | 0.00191
in n-propanol, 313.15 K | 0.00237
in n-propanol, 318.15 K | 0.00281
in n-propanol, 323.15 K | 0.00327
in propionic acid, 278.15 K | 0.00472
in propionic acid, 283.15 K | 0.00562
in propionic acid, 288.15 K | 0.00697
in propionic acid, 293.15 K | 0.00847
in propionic acid, 298.15 K | 0.0101
in propionic acid, 303.15 K | 0.0123
in propionic acid, 308.15 K | 0.0148
in propionic acid, 313.15 K | 0.0177
in propionic acid, 318.15 K | 0.0212
in sec-butanol, 283.15 K | 0.000301
in sec-butanol, 288.15 K | 0.00038
in sec-butanol, 293.15 K | 0.00048
in sec-butanol, 298.15 K | 0.000581
in sec-butanol, 303.15 K | 0.000686
in sec-butanol, 308.15 K | 0.000846
in sec-butanol, 313.15 K | 0.000995
in sec-butanol, 318.15 K | 0.0012
in sec-butanol, 323.15 K | 0.00147
in water, 283.15 K | 0.000931
in water, 288.15 K | 0.00108
in water, 293.15 K | 0.00125
in water, 298.15 K | 0.00144
in water, 303.15 K | 0.00166
in water, 308.15 K | 0.00193
in water, 313.15 K | 0.00221
in water, 318.15 K | 0.00254
in water, 323.15 K | 0.00293
